Reference: PMC9074039, “Molecular analysis and essentiality of Aro1 shikimate biosynthesis multi-enzyme in Candida albicans” (Life Science Alliance, 2022)

Experiments:
Aro1EPSPS = molecular target: T1, Aro1EPSPS (Candida albicans, UniProt Q5AME2); assay: X-ray crystal structure, […] A; format: binding; details: co-crystallised with 1 mM shikimate-3-phosphate, pH 8; closed conformation
T1 construct: gene ARO1; EPSPS domain, residues 387-844, expressed in E. coli BL21(DE3) Gold, His6-TEV tag cut; strain SC5314 printed for the full-length clone pLC1335
T1 sequence (Q5AME2 387-844): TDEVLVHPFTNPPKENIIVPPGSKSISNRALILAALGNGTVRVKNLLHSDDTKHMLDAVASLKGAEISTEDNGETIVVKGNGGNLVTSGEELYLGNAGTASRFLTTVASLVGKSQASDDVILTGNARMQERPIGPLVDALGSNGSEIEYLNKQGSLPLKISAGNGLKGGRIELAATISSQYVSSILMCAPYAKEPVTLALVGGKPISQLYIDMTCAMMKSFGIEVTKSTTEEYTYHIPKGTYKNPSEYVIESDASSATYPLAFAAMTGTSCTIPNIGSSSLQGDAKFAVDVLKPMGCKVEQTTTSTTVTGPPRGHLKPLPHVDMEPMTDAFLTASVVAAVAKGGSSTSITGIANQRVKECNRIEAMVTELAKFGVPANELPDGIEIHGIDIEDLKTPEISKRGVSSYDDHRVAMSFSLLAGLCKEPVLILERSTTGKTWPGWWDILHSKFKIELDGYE

Aro1DHQS = molecular target: T2, Aro1DHQS (Candida albicans, UniProt Q5AME2); assay: X-ray crystal structure, […] A; format: binding; details: co-crystallised with 2 mM NADH and 0.5 mM ZnCl2; one NADH per chain
T2 construct: gene ARO1; N-terminal DHQS domain, residues 1-387, expressed in E. coli BL21(DE3) Gold, His6-TEV tag cut; dimer in crystal; strain SC5314 printed for the full-length clone pLC1335
T2 sequence (Q5AME2 1-387): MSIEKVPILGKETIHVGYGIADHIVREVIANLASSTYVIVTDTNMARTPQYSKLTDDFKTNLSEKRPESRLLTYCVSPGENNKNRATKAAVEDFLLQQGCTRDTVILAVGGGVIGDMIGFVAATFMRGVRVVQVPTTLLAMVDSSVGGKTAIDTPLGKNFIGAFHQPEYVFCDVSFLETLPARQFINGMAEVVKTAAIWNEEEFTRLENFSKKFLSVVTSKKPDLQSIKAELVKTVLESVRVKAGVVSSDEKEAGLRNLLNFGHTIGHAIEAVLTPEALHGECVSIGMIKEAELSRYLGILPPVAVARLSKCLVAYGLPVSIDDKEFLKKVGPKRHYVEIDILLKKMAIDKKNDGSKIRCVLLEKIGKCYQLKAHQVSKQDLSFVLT

SMILES | X-ray crystal structure, 1.85 A (Aro1EPSPS) | X-ray crystal structure, 1.85 A (Aro1DHQS)
O=C(O)C1=C[C@@H](OP(=O)(O)O)[C@@H](O)[C@H](O)C1 [S3P, shikimate-3-phosphate] | additional electron density corresponding to a molecule of this substrate in the cleft | –
NC(=O)C1=CN([C@@H]2O[C@H](COP(=O)(O)OP(=O)(O)OC[C@H]3O[C@@H](n4cnc5c(N)ncnc54)[C@H](O)[C@@H]3O)[C@@H](O)[C@H]2O)C=CC1 [NADH] | – | one NADH molecule bound to each copy of this fragment
